Measured values published in ChEMBL document CHEMBL4354834 (J Med Chem, 2020).
Values belong to the compound of their own block, whether it stands above or below them.

Key:
[1] = Protein binding in cynomolgus monkey; type: ADME, Macaca fascicularis; settings: read-out: PB (converted)
[2] = Oral bioavailability in dog at 0.57 mg/kg; type: ADME, organism-based, Canis lupus familiaris; settings: in vivo
[3] = Half life in rat at 0.70 mg/kg, iv or 1.40 mg/kg, po; type: ADME, organism-based; settings: in vivo
[4] = Oral bioavailability in rat at 1.40 mg/kg; type: ADME, organism-based; settings: in vivo, 1.4 mg/kg
[5] = Clearance in cynomolgus monkey at 0.72 mg/kg, iv or 1.33 mg/kg, po; type: ADME, organism-based, Macaca fascicularis; settings: in vivo
[6] = Half life in cynomolgus monkey at 0.72 mg/kg, iv or 1.33 mg/kg, po; type: ADME, organism-based, Macaca fascicularis; settings: in vivo
[7] = AUC in cynomolgus monkey at 1.33 mg/kg, po; type: ADME, organism-based, Macaca fascicularis; settings: in vivo
[8] = AUC in dog at 0.57 mg/kg, po; type: ADME, organism-based, Canis lupus familiaris; settings: in vivo
[9] = Volume of distribution at steady state in rat at 0.70 mg/kg, iv or 1.40 mg/kg, po; type: ADME, organism-based; settings: in vivo, 0.7 mg/kg, read-out: Vdss
[10] = Clearance in rat at 0.70 mg/kg, iv or 1.40 mg/kg, po; type: ADME, organism-based; settings: in vivo, 0.7 mg/kg
[11] = Clearance in dog at 0.40 mg/kg, iv or 0.57 mg/kg, po; type: ADME, organism-based, Canis lupus familiaris; settings: in vivo, 0.4 mg/kg
[12] = Protein binding in dog; type: ADME, Canis lupus familiaris; settings: read-out: PB (converted)
[13] = AUC in rat at 1.40 mg/kg, po; type: ADME, organism-based; settings: in vivo, 1.4 mg/kg
[14] = Half life in dog at 0.40 mg/kg, iv or 0.57 mg/kg, po; type: ADME, organism-based, Canis lupus familiaris; settings: in vivo
[15] = Volume of distribution at steady state in dog at 0.40 mg/kg, iv or 0.57 mg/kg, po; type: ADME, organism-based, Canis lupus familiaris; settings: in vivo, 0.4 mg/kg, read-out: Vdss
[16] = Volume of distribution at steady state in cynomolgus monkey at 0.72 mg/kg, iv or 1.33 mg/kg, po; type: ADME, organism-based, Macaca fascicularis; settings: in vivo, read-out: Vdss
[17] = Oral bioavailability in cynomolgus monkey at 1.33 mg/kg; type: ADME, organism-based, Macaca fascicularis; settings: in vivo
[18] = Protein binding in rat; type: ADME; settings: plasma, read-out: PB (converted)
[19] = AUC in dog at 0.62 mg/kg, po; type: ADME, organism-based, Canis lupus familiaris; settings: in vivo
[20] = Clearance in rat at 0.55 mg/kg, iv or 1.10 mg/kg, po; type: ADME, organism-based; settings: in vivo
[21] = Half life in rat at 0.55 mg/kg, iv or 1.10 mg/kg, po; type: ADME, organism-based; settings: in vivo
[22] = Volume of distribution at steady state in cynomolgus monkey at 0.71 mg/kg, iv or 1.52 mg/kg, po; type: ADME, organism-based, Macaca fascicularis; settings: in vivo, read-out: Vdss
[23] = Clearance in cynomolgus monkey at 0.71 mg/kg, iv or 1.52 mg/kg, po; type: ADME, organism-based, Macaca fascicularis; settings: in vivo
[24] = AUC in rat at 1.10 mg/kg, po; type: ADME, organism-based; settings: in vivo, 1.1 mg/kg
[25] = Oral bioavailability in cynomolgus monkey at 1.52 mg/kg; type: ADME, organism-based, Macaca fascicularis; settings: in vivo
[26] = Half life in dog at 0.40 mg/kg, iv or 0.62 mg/kg, po; type: ADME, organism-based, Canis lupus familiaris; settings: in vivo
[27] = Volume of distribution at steady state in rat at 0.55 mg/kg, iv or 1.10 mg/kg, po; type: ADME, organism-based; settings: in vivo, read-out: Vdss
[28] = Oral bioavailability in rat at 1.10 mg/kg; type: ADME, organism-based; settings: in vivo, 1.1 mg/kg
[29] = Volume of distribution at steady state in dog at 0.40 mg/kg, iv or 0.62 mg/kg, po; type: ADME, organism-based, Canis lupus familiaris; settings: in vivo, 0.4 mg/kg, read-out: Vdss
[30] = Oral bioavailability in dog at 0.62 mg/kg; type: ADME, organism-based, Canis lupus familiaris; settings: in vivo
[31] = AUC in cynomolgus monkey at 1.52 mg/kg, po; type: ADME, organism-based, Macaca fascicularis; settings: in vivo
[32] = Clearance in dog at 0.40 mg/kg, iv or 0.62 mg/kg, po; type: ADME, organism-based, Canis lupus familiaris; settings: in vivo, 0.4 mg/kg
[33] = Half life in cynomolgus monkey at 0.71 mg/kg, iv or 1.52 mg/kg, po; type: ADME, organism-based, Macaca fascicularis; settings: in vivo
[34] = Volume of distribution at steady state in cynomolgus monkey at 0.80 mg/kg, iv or 1.58 mg/kg, po; type: ADME, organism-based, Macaca fascicularis; settings: in vivo, 0.8 mg/kg, read-out: Vdss
[35] = Half life in dog at 0.80 mg/kg, iv; type: ADME, organism-based, Canis lupus familiaris; settings: in vivo, 0.8 mg/kg
[36] = Volume of distribution at steady state in dog at 0.80 mg/kg, iv; type: ADME, organism-based, Canis lupus familiaris; settings: in vivo, 0.8 mg/kg, read-out: Vdss
[37] = Clearance in cynomolgus monkey at 0.80 mg/kg, iv or 1.58 mg/kg, po; type: ADME, organism-based, Macaca fascicularis; settings: in vivo, 0.8 mg/kg
[38] = Half life in cynomolgus monkey at 0.80 mg/kg, iv or 1.58 mg/kg, po; type: ADME, organism-based, Macaca fascicularis; settings: in vivo
[39] = AUC in cynomolgus monkey at 1.58 mg/kg, po; type: ADME, organism-based, Macaca fascicularis; settings: in vivo
[40] = Oral bioavailability in cynomolgus monkey at 1.58 mg/kg; type: ADME, organism-based, Macaca fascicularis; settings: in vivo
[41] = Clearance in dog at 0.80 mg/kg, iv; type: ADME, organism-based, Canis lupus familiaris; settings: in vivo, 0.8 mg/kg

fraction unbound [1]: 0.036
bioavailability [2]: 35%
half-life [3]: 1.2 to 1.8 h
bioavailability [4]: 6 to 18%
clearance [5]: 20 mL/min/kg
half-life [6]: 3.3 h
AUC [7]: 0.069 µM·h
AUC [8]: 0.266 µM·h
Vd [9]: 1.3 to 1.9 L/kg
clearance [10]: 13 to 28 mL/min/kg
clearance [11]: 16.4 mL/min/kg
fraction unbound [12]: 0.05
AUC [13]: 0.069 to 0.475 µM·h
half-life [14]: 2.9 h
Vd [15]: 4 L/kg
Vd [16]: 3.6 L/kg
bioavailability [17]: 4%
fraction unbound [18]: 0.033
Structure (SMILES): COC(=O)Nc1ccc2c(c1)NC(=O)[C@H](C)CCC[C@H](NC(=O)c1cnn(-c3cccc(Cl)c3F)c1C)c1cc-2ccn1.O=C(O)C(F)(F)F

AUC [19]: 0.922 µM·h
clearance [20]: 9 to 21 mL/min/kg
fraction unbound [1]: 0.055
half-life [21]: 2.2 to 4.2 h
Vd [22]: 2.9 L/kg
clearance [23]: 9.9 mL/min/kg
AUC [24]: 0.213 to 1.15 µM·h
bioavailability [25]: 15%
half-life [26]: 4.8 h
Vd [27]: 2.1 to 3.5 L/kg
fraction unbound [12]: 0.038
bioavailability [28]: 13 to 42%
Vd [29]: 2.4 L/kg
bioavailability [30]: 34%
AUC [31]: 0.584 µM·h
clearance [32]: 5.4 mL/min/kg
half-life [33]: 4 h
fraction unbound [18]: 0.052
Structure (SMILES): COC(=O)Nc1ccc2c(c1)NC(=O)[C@H](C)CCC[C@H](NC(=O)c1nnn(-c3cccc(Cl)c3F)c1C)c1cc-2ccn1.O=C(O)C(F)(F)F

fraction unbound [1]: 0.042
Vd [34]: 3.2 L/kg
half-life [3]: 1 to 1.4 h
bioavailability [4]: 7 to 25%
half-life [35]: 5 h
Vd [36]: 6 L/kg
Vd [9]: 0.5 to 2 L/kg
clearance [10]: 6 to 29 mL/min/kg
fraction unbound [12]: 0.043
clearance [37]: 14.5 mL/min/kg
AUC [13]: 0.068 to 1.23 µM·h
half-life [38]: 3.7 h
AUC [39]: 0.509 µM·h
bioavailability [40]: 19%
fraction unbound [18]: 0.026
clearance [41]: 15.6 mL/min/kg
Structure (SMILES): COC(=O)Nc1ccc2c(c1)NC(=O)[C@H](C)CCC[C@H](NC(=O)c1ncn(-c3cccc(Cl)c3F)c1C)c1cc-2ccn1.O=C(O)C(F)(F)F.O=C(O)C(F)(F)F
